According to patent publication US20080069849A1, “Novel Antimicrobial Peptides” (Dermagen AB, priority 2004, published 2008):

What was measured:
Type in all cases: cell-based
Escherichia coli 37.4 = test: Radial diffusion assay (RDA), E. coli 37.4; conditions: zone of inhibition
Procedure: (§1) Escherichia coli 37.4 isolate was originally obtained from a patient with a chronic venous ulcer, while Staphylococcus aureus isolate BD14312 was from a patient with atopic dermatitis. Staphylococcus aureus ATCC29213 and Candida albicans ATCC90028 were both obtained from the Clinical Bacteriology Department at Lund University hospital.
(§2) Essentially as described earlier (Lehrer et al., J Immunol Methods 137, 167-173, 1991, Andersson et al., Eur J Biochem 271, 1219-1226, 2004) bacteria were grown to mid-logarithmic phase in 10 ml of full-strength (3% w/v) trypticase soy broth (TSB) (Becton-Dickinson, Cockeysville, Md.). The microorganisms were then washed once with 10 mM Tris, pH 7.4.4×10^6 bacterial colony forming units were added to 15 ml of the underlay agarose gel, consisting of 0.03% (w/v) TSB, 1% (w/v) low electroendosmosis type (EEO) agarose (Sigma, St Louis Mo.) and 0.02% (v/v) Tween 20 (Sigma). The underlay was poured into a ø 144 mm petri dish. After agarose solidification, 4 mm-diameter wells were punched and 6 μl of test sample was added to each well. Plates were incubated at 37° C. for 3 hours to allow diffusion of the peptides. The underlay gel was then covered with 15 ml of molten overlay (6% TSB and 1% Low-EEO agarose in dH2O). Antimicrobial activity of a peptide is visualized as a zone of clearing around each well after 18-24 hours of incubation at 37° C.

[1] = test system: Staphylococcus aureus isolate BD14312; test: Radial diffusion assay (RDA), S. aureus BD14312; conditions: zone of inhibition; mean of three measurements; Table 1
Procedure: as §1, §2

[2] = test system: Candida albicans ATCC90028; test: Radial diffusion assay (RDA), Candida ATCC90028; conditions: zone of inhibition; mean of three measurements; Table 1
Procedure: as §1, §2

[3] = test system: Staphylococcus aureus ATCC29213; test: Radial diffusion assay (RDA), S. aureus ATCC29213; conditions: zone of inhibition
Procedure: as §1, §2

[4] = Table 2, second generation PEPscreen

CC[C@H](C)[C@H](NC(=O)[C@H](CCCCN)NC(=O)[C@H](CCC(=O)O)NC(=O)[C@H](CCCCN)NC(=O)[C@H](CO)NC(=O)[C@H](CCCCN)NC(=O)[C@H](CCCNC(=N)N)NC(=O)[C@H](Cc1ccccc1)NC(=O)[C@H](Cc1ccccc1)NC(=O)[C@H](CC(=O)O)NC(=O)CNC(=O)[C@H](CC(C)C)NC(=O)[C@@H](N)CC(C)C)C(=O)NCC(=O)N[C@@H](CCCCN)C(=O)N[C@@H](CCC(=O)O)C(=O)N[C@@H](Cc1ccccc1)C(=O)N[C@@H](CCCCN)C(=O)N[C@@H](CCCNC(=N)N)C(=O)N[C@H](C(=O)N[C@H](C(=O)N[C@@H](CCC(N)=O)C(=O)N[C@@H](CCCNC(=N)N)C(=O)N[C@H](C(=O)N[C@@H](CCCCN)C(=O)N[C@@H](CC(=O)O)C(=O)N[C@@H](Cc1ccccc1)C(=O)N[C@@H](CC(C)C)C(=O)N[C@@H](CCCNC(=N)N)C(=O)N[C@@H](CC(N)=O)C(=O)N[C@@H](CC(C)C)C(=O)N[C@H](C(=O)N1CCC[C@H]1C(=O)N[C@@H](CCCNC(=N)N)C(=O)N[C@H](C(=O)N[C@@H](CCC(=O)O)C(=O)N[C@@H](CO)C(=O)O)[C@@H](C)O)C(C)C)[C@@H](C)CC)C(C)C)[C@@H](C)CC [LL37, reference compound]
RDA (mm) E. coli 37.4 Mean (Escherichia coli 37.4; [4]): 5.604 mm
RDA (mm) E. coli 37.4 Mean (Escherichia coli 37.4; mean of six measurements, Table 1): 3.529 mm
RDA (mm) S. aureus BD14312 Mean [1]: 1.285 mm
RDA (mm) Candida ATCC90028 Mean [2]: 2.43 mm
RDA (mm) S. aureus ATCC29213 Mean [3, 4]: 8.755 mm
RDA (mm) S. aureus ATCC29213 Mean ([3]; mean of three measurements, Table 1): 2.215 mm
